Drawing on ChEMBL document CHEMBL1151371, “Plant Anticancer Agents. XI. 2,6-Dimethoxybenzoquinone as a Cytotoxic Constituent of Tibouchina pulchra” (1981), this text covers EC50 for 1 molecule.

The subject of this experiment is KB. Description: Cytotoxicity against human KB cells. It is filed as functional. The following applies: read-out: ED50 (the source's name).

Values after ≈ are worked out from the molar mass of the structure shown.

For the molecule `COC1=CC(=O)C=C(OC)C1=O` [2,6-DIMETHOXYQUINONE], the EC50 came out at 3.1 µg/mL (≈ 18.4 µM).
